Among the data in PubChem BioAssay AID1645862 (Buhrlage Lab, Dana-Farber Cancer Institute and Novartis …, 2021) are IC50 values, retold here.

Activity calls are given as the source filed them. The rule behind the calls is not given here. Bridge positions count the residues as written; N and C are the ends. Square brackets hold non-standard residues; d marks the D form. Peptide text beside a SMILES is read from it. * marks the point of attachment. ξ: configuration not given here. d(aIle) = CC[C@H](C)[C@@H](N)C(=O)O; d(aThr) = C[C@@H](O)[C@@H](N)C(=O)O; X1 = CCCCCCCCCCCC(O)CC(=O)*; ξL = CC(C)CC(N)C(=O)O

The IC50 is the concentration that inhibits the measured activity by half.

The target of the assay is Ubiquitin carboxyl-terminal hydrolase 8 (Homo sapiens) (UniProt P40818). In words: Ubiquitin-specific protease 8 inhibitors, concentration-effect, biochemical, validation of initial actives (AID 1645862).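 Note: potency reflects inhibition of USP8 cleavage of a ubiquitin rhodamine substrate.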 Conditions: recombinant USP8 deubiquitinase activity assay.
Chain of Ubiquitin carboxyl-terminal hydrolase 8 (Homo sapiens) (P40818 whole entry, looked up): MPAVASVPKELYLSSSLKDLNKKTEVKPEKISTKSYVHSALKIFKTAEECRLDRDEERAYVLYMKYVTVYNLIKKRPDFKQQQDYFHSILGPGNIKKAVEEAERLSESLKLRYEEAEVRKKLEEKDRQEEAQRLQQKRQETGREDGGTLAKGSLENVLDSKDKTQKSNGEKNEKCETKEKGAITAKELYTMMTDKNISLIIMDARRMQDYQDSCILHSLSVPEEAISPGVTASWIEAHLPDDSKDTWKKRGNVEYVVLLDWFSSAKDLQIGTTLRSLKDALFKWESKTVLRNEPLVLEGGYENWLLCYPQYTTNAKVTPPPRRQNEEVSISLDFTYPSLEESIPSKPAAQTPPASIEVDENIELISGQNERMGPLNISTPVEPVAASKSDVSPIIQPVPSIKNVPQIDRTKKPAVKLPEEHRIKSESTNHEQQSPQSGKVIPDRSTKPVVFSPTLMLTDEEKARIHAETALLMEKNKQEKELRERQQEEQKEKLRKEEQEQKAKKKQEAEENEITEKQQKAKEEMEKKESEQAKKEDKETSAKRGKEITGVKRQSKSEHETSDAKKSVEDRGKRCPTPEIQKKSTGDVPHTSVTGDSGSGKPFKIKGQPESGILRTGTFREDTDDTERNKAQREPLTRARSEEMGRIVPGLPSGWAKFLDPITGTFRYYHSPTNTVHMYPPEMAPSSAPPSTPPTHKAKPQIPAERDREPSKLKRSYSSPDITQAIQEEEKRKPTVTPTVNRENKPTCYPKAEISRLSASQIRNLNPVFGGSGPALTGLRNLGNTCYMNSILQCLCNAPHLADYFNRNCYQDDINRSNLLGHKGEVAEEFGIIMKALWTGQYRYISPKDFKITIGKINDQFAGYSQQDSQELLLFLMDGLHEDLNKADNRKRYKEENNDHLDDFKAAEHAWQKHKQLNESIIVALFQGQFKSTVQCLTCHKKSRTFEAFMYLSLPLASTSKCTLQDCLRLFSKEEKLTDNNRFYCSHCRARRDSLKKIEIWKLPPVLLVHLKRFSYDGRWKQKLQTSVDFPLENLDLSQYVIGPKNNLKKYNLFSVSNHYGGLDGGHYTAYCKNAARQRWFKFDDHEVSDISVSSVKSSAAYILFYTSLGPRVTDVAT

On to `Nc1c(C(=O)NCc2ccc3c(c2)OCO3)nnn1Cc1ccc(Br)cc1F`, for which the IC50 was > 40 µM (inactive).

With `N#Cc1cccc(NC(=O)c2[nH]nc3c2COc2ccccc2-3)c1`, the IC50 is 38.3 µM.

Turning to `O=C(NCCc1ccccc1)c1ccc2c(=O)n(Cc3ccco3)c(=O)n(Cc3cccc([N+](=O)[O-])c3)c2c1`, the IC50 is 15.4 µM.

`CCOc1ccc(-c2nnc(NC(=O)C3CCN(S(=O)(=O)c4ccc5c(c4)CCC5)CC3)o2)cc1`: the IC50 is > 40 µM (inactive).

For the molecule `COc1ccc(NC(=O)Cn2cc(C(=O)c3ccc(F)cc3)c(=O)c3cc(C)ccc32)cc1OC`, the IC50 was > 40 µM (inactive).

As to `O=C(Cn1c(=O)[nH]c2ccccc2c1=O)NCc1ccccc1Cl`, the IC50 is > 40 µM (inactive).

Regarding `COc1ccc(/C=C/C(=O)Nc2nc3n(n2)C(c2ccccc2)CC(=O)N3)cc1` (stereo not drawn), the IC50 is > 40 µM (inactive).

On to `CC(=O)Nc1ccc(Cc2nc(-c3ccc4c(c3)nc(C)c(=O)n4C3CCCC3)no2)cc1`, for which the IC50 is > 40 µM (inactive).

`COc1ccc(NC(=O)c2nnc(C(=O)NCc3ccccc3F)s2)cc1`: the IC50 is > 40 µM (inactive).

Take `Cc1ccccc1-n1ccc2nc(N3CCCC3)ncc2c1=O`: the IC50 was > 40 µM (inactive).

Turning to `COc1ccc(Sc2nc3ccccc3n3cnnc23)cc1`, the IC50 was 32.7 µM.

For `Cc1cccc(OCC2=NN3C(=N)/C(=C\c4cc(C)n(-c5cc(C)cc(C)c5)c4C)C(=O)N=C3S2)c1`, the IC50 is > 40 µM (inactive).

For the molecule `COc1ccc(NC(=O)Cn2c(=O)n(CCCC(=O)NCCc3ccc(OC)c(OC)c3)c(=O)c3ccccc32)cc1Cl`, the IC50 was > 40 µM (inactive).

On to `O=C(CCc1nnc2n(Cc3ccccc3)c(=O)c3ccccc3n12)NCc1ccc2c(c1)OCO2`, for which the IC50 is > 40 µM (inactive).

Turning to `O=C(COc1ccccc1-c1nnc(-c2ccccc2)o1)NCCc1ccco1`, the IC50 was 29.1 µM.

On to `COc1cccc(-n2cnc3cc(C(=O)NCCc4ccccc4)ccc3c2=O)c1`, for which the IC50 was > 40 µM (inactive).

On to `O=C(CSc1nnc2c3ccccc3nc(-c3ccco3)n12)N1CCCc2ccccc21`, for which the IC50 was > 40 µM (inactive).

On to `CC1(C(=O)NCc2ccc(F)cc2)Cn2nc(-c3ccco3)cc2C(=O)N1c1ccc2c(c1)OCCO2` (stereo not drawn), for which the IC50 was > 40 µM (inactive).

As to `Cc1ccc2c(c1)c(=O)c(C(=O)c1ccccc1)cn2CC(=O)Nc1ccc2c(c1)OCCO2`, the IC50 is > 40 µM (inactive).

For `OC1CCCN(c2ncc(-c3cnccn3)c(-c3cccs3)n2)C1` (stereo not drawn), the IC50 is > 40 µM (inactive).

Consider `CCC(=O)N1c2ccccc2NC2=C(C(=O)CC(c3ccccc3OCc3ccccc3)C2)C1c1ccccc1` (stereo not drawn), for which the IC50 was > 40 µM (inactive).

As for `CCC(=O)Nc1nc2cc(NC(=O)Nc3cccc(C)c3)ccc2s1`, the IC50 was > 40 µM (inactive).

For the molecule `COc1ccc(CNC(=O)C(C)n2nc(-c3ccco3)c(-c3cc(C)no3)cc2=O)cc1` (stereo not drawn), the IC50 is > 40 µM (inactive).

`CNc1ccc(-c2noc([C@@H]3CCCN3Cc3cccc(C#N)c3)n2)cn1`: the IC50 is > 40 µM (inactive).

As for `O=C(CCc1nnc2n(Cc3ccccc3Cl)c(=O)c3ccccc3n12)NCc1ccccc1`, the IC50 was > 40 µM (inactive).

`CCc1[nH]c(=O)cc2cc(OC)c(OC)cc12`: the IC50 was 0.722 µM.

With `Cc1ccc(CS(=O)(=O)c2cn(CC(=O)NCCc3ccccc3)c3ccccc23)cc1`, the IC50 was > 40 µM (inactive).

As to `COc1ccc(NC(=O)Cn2c(=O)n(CCCCC(=O)NCc3ccco3)c(=O)c3ccccc32)cc1Cl`, the IC50 was > 40 µM (inactive).

For `Cc1cccc(OCCn2c(CCNC(=O)C3CCCCC3)nc3ccccc32)c1`, the IC50 is > 40 µM (inactive).

For `C=C/C(C)=C/[C@@]1(C)SC(=O)C(C)=C1O`, the IC50 was 14.5 µM.

Take `CCOc1ccc(C2SCC(=O)Nc3c2c(=O)[nH]n3C2CCCCC2)cc1` (stereo not drawn): the IC50 was > 40 µM (inactive).

Turning to `O=C(c1[nH]nc2c1COc1ccccc1-2)N1CCN(c2ccccn2)CC1`, the IC50 was > 40 µM (inactive).

For the molecule `CN(C(=O)C1(c2ccccc2)CC1)c1nc2c(s1)CCc1occc1-2`, the IC50 was > 40 µM (inactive).

For the molecule `N#Cc1ccc(NC(=O)Nc2cccn(Cc3c(F)cccc3Cl)c2=O)cc1`, the IC50 is > 40 µM (inactive).

Regarding `COc1cc2cc3c(c(O)c2c(O)c1-c1c(OC)cc2cc4c(c(O)c2c1O)C(=O)OC1CC(C)OC41)C(=O)OC1CC(C)OC31` (stereo not drawn), the IC50 was 0.972 µM.

Consider `N#Cc1cccnc1N1CCN(C(=O)Nc2cccc3ccccc23)CC1`, for which the IC50 was > 40 µM (inactive).

As to `Cc1ncc(-c2ccc3c(c2)OCO3)c(-c2nccs2)n1`, the IC50 was > 40 µM (inactive).

For the molecule `O=C(NCCN1CCOCC1)c1cn2cc(Cl)ccc2n1`, the IC50 was > 40 µM (inactive).

In the case of `Cn1c(=O)n(CCc2ccccc2)c(=O)c2c1nc1n2CCN1Cc1ccccc1`, the IC50 is > 40 µM (inactive).

As for `COc1cc(/C=C/C(=O)OCC(=O)Nc2ccc([N+](=O)[O-])cc2OC)ccc1O`, the IC50 is 26.3 µM.

Consider `CCCCCCCCCCCC(O)CC(=O)N[C@@H](CC(C)C)C(=O)N[C@H](CCC(=O)O)C(=O)N[C@H]1C(=O)N[C@H]([C@@H](C)CC)C(=O)NC(CC(C)C)C(=O)N[C@H](CO)C(=O)N[C@@H](CC(C)C)C(=O)N[C@@H](CC(C)C)C(=O)N[C@H](CO)C(=O)N[C@@H](C(C)C)C(=O)O[C@@H]1C` (stereo partly drawn) (X1-L[dE][d(aThr)][d(aIle)][ξL][dS]LL[dS]V; ester 3-C), for which the IC50 is > 40 µM (inactive).

As for `Cc1ccc(-c2nn(C(C)(C)C)c3ncnc(NS(=O)(=O)c4ccc(Cl)cc4)c23)cc1`, the IC50 was > 40 µM (inactive).

For the molecule `CN1CCC(N2CCN(C(=O)C3CCCN(c4cnc5nccnc5c4)C3)CC2)CC1` (stereo not drawn), the IC50 was > 40 µM (inactive).

On to `Cc1cc(CN2CCCCC2c2cc(=O)n3ccnc3[nH]2)no1` (stereo not drawn), for which the IC50 was > 40 µM (inactive).

`CCn1cc2c(n1)c(=O)n(Cc1ccccc1)c(=O)n2CC(=O)NCc1ccc(C)cc1`: the IC50 is > 40 µM (inactive).

For `Cc1ccccc1Cn1c(=O)n(CC2CCC(C(=O)NC3CCCC3)CC2)c(=O)c2ccccc21` (stereo not drawn), the IC50 is > 40 µM (inactive).

On to `O=C(Cc1ccc(-n2c(=O)c3ccccc3n(CC(=O)Nc3ccc(Cl)cc3Cl)c2=O)cc1)NCc1ccco1`, for which the IC50 is > 40 µM (inactive).

As for `Cc1c(-c2nc(-c3ccccc3Cl)no2)nnn1-c1cccc(F)c1`, the IC50 is > 40 µM (inactive).

Regarding `O=C(CSc1ccc(-c2ccccc2)nn1)Nc1ccc(F)c([N+](=O)[O-])c1`, the IC50 is > 40 µM (inactive).

As for `O=C(Nc1cccc(-c2nc3ncccc3o2)c1)c1ccc([N+](=O)[O-])cc1`, the IC50 is > 40 µM (inactive).

As for `COc1ccccc1Nc1ncc(C(=O)NCCc2ccc(Cl)cc2)c2ccccc12`, the IC50 is > 40 µM (inactive).

With `COc1ccc(Cl)cc1NC(=O)COC(=O)c1cc2ccccc2oc1=O`, the half-maximal inhibitory concentration (IC50) is 24.2 µM.

With `O=C(Nc1ccccc1)[C@@H]1[C@@H]2C(=O)N(c3ccc([N+](=O)[O-])cc3)C(=O)[C@@H]2[C@H]2c3ccccc3C=CN12`, the IC50 was 34 µM.

In the case of `COc1ccc(-c2cc3nc([C@H](C)NC(=O)Cc4ccccc4C)nn3cn2)cc1`, the IC50 was > 40 µM (inactive).

In the case of `CCn1cc2c(n1)c(=O)n(Cc1ccccc1)c(=O)n2CC(=O)Nc1ccc(C)cc1C`, the IC50 is 24.4 µM.

Consider `CCOc1ccc2cc3c(nc2c1)OC(=O)N(Cc1ccc(OC)cc1)C3`, for which the IC50 is 9.25 µM.

Regarding `Cc1ccc2[nH]c(=O)c(-c3nc4ccccn4c3NCc3ccccc3)cc2c1`, the IC50 was > 40 µM (inactive).

In the case of `Cc1cc(Nc2ccc(C(=O)NCc3ccco3)cc2)n2nc(-c3cccnc3)nc2n1`, the IC50 was > 40 µM (inactive).

As to `O=c1cc(-c2ccc(O)c(O)c2)oc2cc(O[C@@H]3O[C@H](CO)[C@@H](O)[C@H](O)[C@H]3O)cc(O)c12`, the IC50 is 2.01 µM.

Regarding `COc1ccc(C(=O)Nc2nc(-c3ccc4c(c3)NC(=O)CO4)c(C)s2)cc1OC`, the IC50 was > 40 µM (inactive).

For the molecule `Cc1ccc(S(=O)(=O)Nc2cccc(Cl)c2)cc1NC(=O)CCC(=O)c1ccc(Cl)cc1`, the IC50 was > 40 µM (inactive).

With `COc1ccc(CC(=O)Nc2ccccc2-c2nc3ccccc3[nH]2)cc1OC`, the IC50 is > 40 µM (inactive).

As to `Cc1cc(-c2ccc(S(=O)(=O)NCc3ccc(Cl)cc3)s2)on1`, the IC50 is > 40 µM (inactive).

Regarding `O=C(Cn1nnc2ccccc21)Nc1nc(-c2ccc3c(c2)CCN3C(=O)c2ccccc2F)cs1`, the IC50 is > 40 µM (inactive).

As for `CC(C)=CCc1c2c(c3occ(-c4ccc(O)c(O)c4)c(=O)c3c1O)C=CC(C)(C)O2`, the IC50 is 16 µM.

`CCN(c1ccc(NC(=O)CSc2nnc(-c3ccccc3)n2-c2ccc(OC)c(OC)c2)cc1)C(C)C`: the IC50 was > 40 µM (inactive).

Take `Cc1nc(C(=O)NC2(O)C(=O)c3ccccc3C2=O)cs1`: the IC50 is 4.23 µM.

As to `COc1cc(O)c2c(O)c3c(cc2c1)C[C@@]1(O)CC(=O)C(C(N)=O)=C(O)[C@@]1(O)C3=O`, the IC50 is 3.61 µM.

As for `O=C(Cn1c(=O)n(Cc2ccc(C(=O)NC3CCCC3)cc2)c(=O)c2ccccc21)c1ccc(Cl)c(Cl)c1`, the IC50 is > 40 µM (inactive).

Consider `COc1ccc(-n2ccc(=O)c(-c3nc(-c4ccc(F)cc4)no3)n2)cc1`, for which the IC50 was > 40 µM (inactive).

Regarding `COc1ccc(OC)c(NC(=O)Cn2c(=O)n(C3CCCCC3)c(=O)c3ccccc32)c1`, the IC50 was > 40 µM (inactive).

As for `Cc1ccc(NC(=O)Nc2ccc(C)n(CC(=O)Nc3ccc(C)cc3C)c2=O)cc1`, the IC50 is 26 µM.

`O=C(CSc1nnc2ccc3ccccc3n12)c1ccc(Cl)cc1`: the IC50 was > 40 µM (inactive).

For `NS(=O)(=O)c1cccc(NC(=O)/C=C/c2cn(-c3ccccc3)nc2-c2cccc([N+](=O)[O-])c2)c1`, the IC50 is > 40 µM (inactive).

With `COc1ccccc1CNC(=O)Cn1cnc2c(-c3ccccc3)csc2c1=O`, the IC50 was > 40 µM (inactive).

For `O=C(c1ccco1)N1CCCC1c1nc(-c2ccccc2)n[nH]1` (stereo not drawn), the IC50 was > 40 µM (inactive).

`COc1ccc(Nc2nc3c(S(=O)(=O)c4ccc(C)cc4)nnn3c3ccsc23)c(OC)c1`: the IC50 was > 40 µM (inactive).

Consider `COc1ccccc1C(=O)Nc1ccc(Oc2ncnc3sc(-c4ccccc4)cc23)cc1`, for which the IC50 is > 40 µM (inactive).
